# From patent US12568967B2, “Compositions comprising pyridine carboxylate herbicides with synthetic auxin herbicides or auxin transport inhibitors” (priority 2018, dated 2026)
# Several values for one entry are separate records, joined by “and”; a condition that tells them apart may be missing. Equal entries are not always repeated.
# Assays:
# [1] = test system: Matricaria inodora (false chamomile, MATIN); experiment: Greenhouse postemergence trial MATIN; type: in vivo; details: MATIN; for % visual injury, Obs: applied alone
# [2] = test system: Papaver rhoeas (corn poppy), herbicide-resistant (PAPRH-R); experiment: Greenhouse postemergence trial PAPRH-R; type: in vivo; details: PAPRH-R; for % visual injury, Obs: applied alone
# Protocol: (§1) Seeds of the desired test plant species were planted in a 90:10% v/v (volume/volume) mixture of PRO-MIX® BX (Premier Tech Horticulture, Quakertown, PA, USA) and PROFILE® GREENS GRADE™ (Profile Products LLC, Buffalo Grove, IL, USA) planting mixture, which typically has a pH of 5.2 to 6.2 and an organic matter content of at least 50 percent, in plastic pots with a surface area of 103.2 square centimeters (cm^2). […] The plants were grown for 7-36 days (d) in a greenhouse with an approximate 14-hour (h) photo-period which was maintained at about 23° C. during the day and 22° C. during the night. Nutrients and water were added on a regular basis and supplemental lighting was provided with overhead metal halide 1000-Watt lamps as necessary. The plants were employed for testing when they reached the second or third true leaf stage.
# (§2) Emulsifiable concentrates of each of each pyridine carboxylate herbicide (Compound A or Compound B) were prepared at 100 grams acid equivalent per liter (g ae/L). The emulsifiable concentrates also included a safener, cloquintocet-mexyl, at 120 grams active ingredient per liter (g ai/L), unless otherwise noted below. An aliquot of each emulsifiable concentrate was placed in a 25 mL glass vial and diluted with an aqueous mixture of 1.25% (v/v) ACTIROB® B esterified rapeseed oil (Bayer Crop Science, Research Triangle Park, NC, USA) or MSO® Concentrate with LECI-TECH® methylated soybean oil (Loveland Products, Loveland, CO, USA) to obtain concentrated stock solutions at the highest application rate for each herbicide, based upon a 12 milliliter (mL) application volume at a rate of 187 liters per hectare (L/ha). The concentrated stock solutions were further diluted with an aqueous mixture of 1.25% v/v ACTIROB® B or MSO® Concentrate with LECI-TECH® to obtain stock solutions at reduced application rates for each herbicide. Spray solutions of the herbicide combinations (Compound A or Compound B plus synthetic auxin herbicide or auxin transport inhibitor) were prepared by adding weighed amounts or aliquots of the synthetic auxin herbicide or auxin transport inhibitor to the stock solutions of Compound A or Compound B to form 12-mL spray solutions in two-way combinations.
# (§3) The spray solutions were applied to the plant material with an overhead Mandel track sprayer equipped with 8002E nozzles calibrated to deliver 187 L/ha over an application area of 0.503 square meters (m^2) at a spray height of 18 inches (43 centimeters (cm)) above the average plant canopy. Control plants were sprayed in the same manner with the solvent blank. All pyridine carboxylate herbicide (component a) application rates are given as “g ae/ha” and all synthetic auxin herbicide or auxin transport inhibitor (component b) application rates are given as “g ai/ha.”
# (§4) The treated plants and control plants were placed in a greenhouse as described above and watered by sub-irrigation to prevent wash-off of the test compounds. After 20-22 d, the condition of the test plants as compared with that of the control plants was determined visually and scored on a scale of 0 to 100 percent where 0 corresponds to no injury and 100 corresponds to complete kill.
# [3] = test system: Viola tricolor (wild pansy, VIOTR); experiment: Greenhouse postemergence trial VIOTR;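 also: greenhouse plants sprayed at second to third true leaf stage, injury rated visually after 20-22 d against solvent-blank sprayed controls, 0 meaning no injury and 100 complete kill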
# [4] = test system: Echinochloa crus-galli (barnyard grass, ECHCG); experiment: Greenhouse postemergence trial ECHCG; type: in vivo; details: Compound A 10 g/ha
# Protocol: as §1, §2, §3, §4
# [5] = test system: Helianthus annuus (common sunflower, HELAN); experiment: Greenhouse postemergence trial HELAN; type: in vivo; details: Compound A 10 g/ha
# Protocol: as §1, §2, §3, §4
# [6] = test system: Chenopodium album L. (common lambsquarters, CHEAL); experiment: Greenhouse postemergence trial CHEAL; type: in vivo;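 also: greenhouse plants sprayed at second to third true leaf stage, injury rated by eye after 20-22 d versus solvent-blank sprayed controls, 0 = no injury, 100 = complete kill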
# [7] = test system: Glycine max (volunteer soybean, GLXMA); experiment: Greenhouse postemergence trial GLXMA; type: in vivo; details: Compound A 10 g/ha
# Protocol: as §1, §2, §3, §4
# [8] = test system: Leptochloa chinensis (Chinese sprangletop, LEFCH); experiment: Greenhouse postemergence trial LEFCH; type: in vivo; details: Compound A 10 g/ha
# Protocol: as §1
# Emulsifiable concentrates of each of each pyridine carboxylate herbicide (Compound A or Compound B) were prepared at 100 grams acid equivalent per liter (g ae/L). The emulsifiable concentrates also included a safener, cloquintocet-mexyl, at 120 grams active ingredient per liter (g ai/L), unless otherwise noted below. An aliquot of each emulsifiable concentrate was placed in a 25 mL glass vial and diluted with an aqueous mixture of 1.25% (v/v) ACTIROB® B esterified rapeseed oil (Bayer Crop Science, Research Triangle Park, NC, USA) or MSO® Concentrate with LECI-TECH® methylated soybean oil (Loveland Products, Loveland, CO, USA) to obtain concentrated stock solutions at the highest application rate for each herbicide, based upon a 12 milliliter (mL) application volume at a rate of 187 liters per hectare (L/ha). The concentrated stock solutions were further diluted with an aqueous mixture of 1.25% v/v ACTIROB® B or MSO® Concentrate with LECI-TECH® to obtain stock solutions at reduced application rates for each herbicide. Spray solutions of the herbicide combinations (Compound A or Compound B plus synthetic auxin herbicide or auxin transport inhibitor) were prepared by adding weighed amounts or aliquots of the synthetic auxin herbicide or auxin transport inhibitor to the stock solutions of Compound A or Compound B to form 12-mL spray solutions in two-way combinations. […]
# as §4
# [9] = test system: Stellaria media (chickweed, STEME); experiment: Greenhouse postemergence trial STEME; type: in vivo; details: for % visual injury Obs: alone
# Protocol: as §1, §2, §3, §4
# [10] = test system: Brassica napus (spring rape, BRSNN); experiment: Greenhouse postemergence trial BRSNN; type: in vivo
# [11] = Compound A 10 g/ha, without safener
# [12] = Viola tricolor, post-emergence, read-out: % visual injury Obs
structure (smiles),measurement,setting,value
"N#CCOC(=O)c1nc(-c2ccc3cc[nH]c3c2F)c(F)c(N)c1Cl [Compound A, cyanomethyl 4-amino-3-chloro-5-fluoro-6-(7-fluoro-1H-indol-6-yl)pyridine-2-carboxylate]","visual injury, Obs",[1]; Compound A 10 g/ha alone,60%
same,"visual injury, Obs",[1]; Compound A 15 g/ha alone,60%
same,% visual injury (Obs),[1]; alone 10 g/ha,93%
same,% visual injury Obs,[1]; alone 10 g/ha,60%
same,% visual injury Obs,"[1]; alone, 15 g/ha",60%
same,"% visual injury, Obs",[1]; 10 g/ha,60%
same,"% visual injury, Obs",[1]; 15 g/ha,60%
same,pest or weed control at […],"[1]; Tripleurospermum inodorum, post-emergence, Compound A 7.5 g/ha, read-out: % visual injury Obs",30%
same,pest or weed control at 10 g/ha,"[1]; Tripleurospermum inodorum, post-emergence, Compound A 10 g/ha, read-out: % visual injury Obs",60%
same,pest or weed control at 15 g/ha,"[1]; Tripleurospermum inodorum, post-emergence, Compound A 15 g/ha, read-out: % visual injury Obs",60%
same,% visual injury Obs,[2]; Compound A 10 g/ha,90%
same,"visual injury, Obs",[2]; Compound A 10 g/ha alone,90%
same,"visual injury, Obs",[2]; Compound A 15 g/ha alone,100%
same,% visual injury Obs,"[2]; alone, 10 g/ha",90%
same,% visual injury Obs,"[2]; alone, 15 g/ha",100%
same,"% visual injury, Obs",[2]; 10 g/ha,90%
same,"% visual injury, Obs",[2]; 15 g/ha,100%
same,pest or weed control at […],"[2]; Papaver rhoeas, post-emergence, Compound A 7.5 g/ha, read-out: % visual injury Obs",85%
same,pest or weed control at 10 g/ha,"[2]; Papaver rhoeas, post-emergence, Compound A 10 g/ha, read-out: % visual injury Obs",90%
same,pest or weed control at 15 g/ha,"[2]; Papaver rhoeas, post-emergence, Compound A 15 g/ha, read-out: % visual injury Obs",100%
same,VIOTR Obs (% visual injury),[3]; Compound A 10 g/ha,18%
same,VIOTR Obs (% visual injury),[3]; [11],15%
same,% visual injury Obs,"[3]; VIOTR, Compound A 10 g/ha",30%
same,"% visual injury, Obs","[3]; VIOTR, Compound A 10 g/ha",15%
same,"visual injury, Obs","[3]; VIOTR, Compound A 10 g/ha alone",30%
same,"visual injury, Obs","[3]; VIOTR, Compound A 15 g/ha alone",50%
same,% visual injury (Obs),"[3]; VIOTR, alone, 10 g/ha",23%
same,% visual injury Obs,"[3]; VIOTR, alone, 10 g/ha",30%
same,% visual injury Obs,"[3]; VIOTR, alone, 15 g/ha",50%
same,"% visual injury, Obs","[3]; VIOTR, applied alone, 10 g/ha",30%
same,"% visual injury, Obs","[3]; VIOTR, applied alone, 15 g/ha",50%
same,pest or weed control at 10 g/ha,[3]; [12],30%
same,pest or weed control at 15 g/ha,[3]; [12],50%
same,ECHCG Obs (% visual injury),[4],78%
same,ECHCG Obs (% visual injury),[4]; without safener,58%
same,"% visual injury, Obs",[4]; ECHCG,58%
same,HELAN Obs (% visual injury),[5]; without safener,100%
same,"% visual injury, Obs",[5]; HELAN,100%
same,"% visual injury, Obs","[6]; CHEAL, Compound A 10 g/ha",88% and 78%
same,% visual injury (Obs),"[6]; CHEAL, alone 10 g/ha",90% and 78%
same,"% visual injury, Obs","[6]; CHEAL, applied alone, 10 g/ha",80%
same,CHEAL Obs (% visual injury),[6]; Compound A 10 g/ha,88% and 90%
same,CHEAL % visual injury Obs,[6]; Compound A 10 g/ha (Table 42),88%
same,CHEAL % visual injury Obs,[6]; Compound A 10 g/ha (Table 43),88%
same,CHEAL % visual injury Obs,[6]; Compound A 10 g/ha (Table 44),88%
same,GLXMA Obs (% visual injury),[7]; without safener,85%
same,"% visual injury, Obs",[7]; GLXMA,85%
same,LEFCH Obs (% visual injury),[8]; without safener,0%
same,"% visual injury, Obs",[8]; LEFCH,0%
same,STEME Obs (% visual injury),[9]; [11],88%
same,"% visual injury, Obs","[9]; STEME, Compound A 10 g/ha",88%
same,"visual injury, Obs","[9]; STEME, Compound A 10 g/ha alone",70%
same,"visual injury, Obs","[9]; STEME, Compound A 15 g/ha alone",100%
same,% visual injury Obs,"[9]; STEME, 10 g/ha",70%
same,% visual injury Obs,"[9]; STEME, 15 g/ha",100%
same,"% visual injury, Obs","[9]; STEME, applied alone, 10 g/ha",70%
same,"% visual injury, Obs","[9]; STEME, applied alone, 15 g/ha",100%
same,pest or weed control at […],"[9]; Stellaria media, post-emergence, STEME, Compound A 7.5 g/ha, read-out: % visual injury Obs",65%
same,pest or weed control at 10 g/ha,"[9]; Stellaria media, post-emergence, STEME, Compound A 10 g/ha, read-out: % visual injury Obs",70%
same,pest or weed control at 15 g/ha,"[9]; Stellaria media, post-emergence, STEME, Compound A 15 g/ha, read-out: % visual injury Obs",100%
same,"% visual injury, Obs","[10]; BRSNN, Compound A 10 g/ha",55%
same,% visual injury (Obs),"[10]; BRSNN, alone 10 g/ha",73% and 70%
same,BRSNN Obs (% visual injury),[10]; Compound A 10 g/ha,55% and 83% and 70%
same,BRSNN % visual injury Obs,[10]; Compound A 10 g/ha (Table 42),55%
